In patent US9357924B2, “Composition, method, system and kit for optical electrophysiology” (The Research Foundation of State University of New York, priority 2006, dated 2016):
Several values for one entry are separate records, joined by “and”; a condition that tells them apart may be missing. Equal values may be shown once.

Columns and labels:
[1] = Voltage-dependent fluorescence response in voltage-clamped hemispherical lipid bilayer (HLB) model membrane
Method: Voltage-dependent spectra in model membranes were measured by a voltage-clamped hemispherical lipid bilayer (HLB) apparatus modified for near infrared fluorescence detection. In this experiment, light from a tungsten lamp is sent through a monochromator and then focused onto the bottom of the HLB, stained with dye from the external aqueous bathing solution. The monochromator is then scanned over the wavelength range of interest while a train of ±50 mV voltage steps are applied to the membrane at a frequency of 40 Hz and the modulation of the detected light signal is measured with a lockin amplifier. The transmitted light signal is collected at 180° from the incident light. Fluorescence is collected at 90° via fiber optic light guide through cutoff filters at 715 nm.

[2] = tested on: mouse heart cardiac tissue; assay: Optical action potential recording in Langendorff-perfused mouse heart (Tyrode's solution); conditions: mean ± SD
Method: (§1) The dye testing experiments were performed on typical model animals: mice (n=6), rat (n=11), guinea pig (n=6), pig (n=13). All experimental protocols conformed to the Guide for the Care and Use of Laboratory Animals and were approved by the Committee for the Humane Use of Animal of the SUNY Upstate Medical University. Mice (C57BL/6, 20-25 g) were injected with ketamine (200 mg/kg IP), rats (Sprague Dawley, 300-400 g female) and guinea pigs were injected with heparin (550 U/100 g), and euthanized by sodium phentobarbital (1 ml/100 g for rats and 0.75 ml/100 g for guinea pigs). The heart was then immediately excised and placed in ice-cold cardioplegia solution (CPS) composed of (in mmol/l) 280 Glucose, 13.44 KCl, 12.6 NaHCO3, 34 Mannitol. […] Perfusion and superfusion temperatures were continuously monitored and kept at 36±1° C. by using two sets of glass heating coils and heated-refrigerated circulators. […]
(§2) After a 20-30 min stabilization period during which the perfusion flow and ECG was monitored, the excitation-contraction uncoupler diacetyl-monoxime (DAM) was added to the perfusate (15 mmol/l) to stop contractions of cardiac tissue. […]

[3] = tested on: rat heart cardiac tissue; assay: Optical action potential recording in Langendorff-perfused rat heart (Tyrode's solution); conditions: mean ± SD
Method: as §1, §2

[4] = tested on: guinea pig heart cardiac tissue; assay: Optical action potential recording in Langendorff-perfused guinea pig heart (Tyrode's solution); conditions: mean ± SD
Method: as §1, §2

[5] = tested on: pig cardiac tissue (right free ventricular wall); assay: Optical action potential recording in Tyrode-perfused pig right ventricular wall preparation; conditions: for ΔF/F (relative fluorescence, maximal fluorescence efficacy): pig tissue, Tyrode-perfused, epifluorescence; for ΔF/F (relative fluorescence): pig, transillumination mode, thick cardiac tissue ~10 mm
Method: The dye testing experiments were performed on typical model animals: mice (n=6), rat (n=11), guinea pig (n=6), pig (n=13). All experimental protocols conformed to the Guide for the Care and Use of Laboratory Animals and were approved by the Committee for the Humane Use of Animal of the SUNY Upstate Medical University. Mice (C57BL/6, 20-25 g) were injected with ketamine (200 mg/kg IP), rats (Sprague Dawley, 300-400 g female) and guinea pigs were injected with heparin (550 U/100 g), and euthanized by sodium phentobarbital (1 ml/100 g for rats and 0.75 ml/100 g for guinea pigs). The heart was then immediately excised and placed in ice-cold cardioplegia solution (CPS) composed of (in mmol/l) 280 Glucose, 13.44 KCl, 12.6 NaHCO3, 34 Mannitol. After removal of extraneous tissues, the aorta was cannulated and Langendorff perfusion was started with a standard oxygenated Tyrode's solution (composed of (in mmol/l) 130 NaCl, 24 NaHCO3, 1.2 NaH2PO4, 1.0 MgCl2, 5.6 Glucose, 4.0 KCl, 1.8 CaCl2; buffered to a pH of 7.4) at 80 mm Hg and 36° C. Young pigs (15-20 kg,) were heparinized (500 IU, IV) and subsequently anesthetized with sodium phentobarbital (35 mg/kg IV). The heart was rapidly removed and Langendorff-perfused with cold (4° C.) CPS. The right free ventricular wall was quickly excised, and the right coronary artery was cannulated. Non-perfused tissue was removed, leaving a preparation of typically 5×5 cm and a thickness of 8 mm. The preparation was stretched on a plastic frame and perfused with a standard oxygenated Tyrode's solution at 80 mm Hg and 36° C. Whole cannulated heart (mouse, rat or guinea pig) or stretched pig tissue was put into special transparent chamber and superfused with the same solution at a rate of 30-40 ml/min. Perfusion and superfusion temperatures were continuously monitored and kept at 36±1° C. by using two sets of glass heating coils and heated-refrigerated circulators. Electrodes were sutured to whole hearts or inserted into pig tissue to monitor ECG. All preparations were continuously paced at the frequency 6.7 Hz, 5 Hz, 3.3 Hz and 2 Hz for mouse, rat, guinea pig, and pig, respectively.
After a 20-30 min stabilization period during which the perfusion flow and ECG was monitored, the excitation-contraction uncoupler diacetyl-monoxime (DAM) was added to the perfusate (15 mmol/l) to stop contractions of cardiac tissue. After a 20 minute equilibration, the preparation was stained by injecting voltage-sensitive dye solution into the perfusion flow (a bolus injection near cannula).
Solid dyes were dissolved in DMSO to make 10-50 mM stock solution that was kept frozen. […]

[6] = tested on: mouse heart cardiac tissue; assay: Dye washout dynamics of OP amplitude in mouse heart; conditions: mean ± SD
Method: as §1
(§3) The acquired images were offline processed to improve their quality. The background autofluorescence (endogenous fluorescence recorded under the same conditions before dye injection) was subtracted from each frame to obtain the voltage-dependent optical signal. To allow temporal alignment and subsequent averaging of successive paced action potentials, the trigger for the pacing stimulus was recorded as a single pixel in the movie frames. […]

[7] = tested on: rat heart cardiac tissue; assay: Dye washout dynamics of OP amplitude in rat heart; conditions: mean ± SD
Method: as §1, §3

[8] = tested on: guinea pig heart cardiac tissue; assay: Dye washout dynamics of OP amplitude in guinea pig heart; conditions: mean ± SD
Method: as §1, §3

[9] = tested on: pig cardiac tissue; assay: Dye washout dynamics of OP amplitude in pig cardiac tissue; conditions: mean ± SD
Method: as §1, §3

[10] = tested on: various cardiac tissues; assay: Dye performance in various cardiac tissues compared with di-4-ANEPPS; conditions: in any of the tested species
Method: as §1, with “Mannitol. After removal of extraneous tissues, the aorta was cannulated and Langendorff perfusion was started with a standard oxygenated Tyrode's solution (composed of (in mmol/l) 130 NaCl, 24 NaHCO3, 1.2 NaH2PO4, 1.0 MgCl2, 5.6 Glucose, 4.0 KCl, 1.8 CaCl2; buffered to a pH of 7.4) at 80 mm Hg and 36° C. Young pigs (15-20 kg,) were heparinized (500 IU, IV) and subsequently anesthetized with sodium phentobarbital (35 mg/kg IV).” for “Mannitol.”

[11] = tested on: blood-perfused pig heart; assay: Optical mapping of blood-perfused Langendorff pig heart; conditions: for ΔF/F (relative fluorescence): blood perfusion
Method: Blood-perfused Langendorff preparation of pig heart was implemented. Briefly, approximately 1.5 liters of modified Tyrode's solution (37° C., composition in mmol/L: Na^+, 157; K^+, 4.7; Ca^2+, 1.5; Mg^2+, 0.7, H2PO4^−0.5, Cl^−137.6, HCO3^−28.0, glucose 11.0, dextran 4% and insulin 10 U) was infused in an external jugular vein, and blood-Tyrode's mixture was collected at equal rate from a carotid artery. The heart was perfused with blood-Tyrode mixture in a Langendorff apparatus. The blood-Tyrode mixture will be oxygenated (CO2 5%/02 95%), heated (37° C.) and filtered using a Liliput hollow fiber oxygenator (COBE Cardiovascular, Arvada, Co). Collector tubes were inserted into the right and left ventricles to collect all the blood coming out of the coronary sinus and Thebesian veins. Thereafter, the heart was “sealed” to ensure that all the outflow of perfused blood is collected for recirculation. The heart was placed in a warm bath with heated water-jacketed transparent glass wall and was superfused with an oxygenated, heated Tyrode solution. After a 20-30 min stabilization verified by a vigorous contraction and normal sinus rhythm, the excitation-contraction uncoupler diacetyl-monoxime (DAM) was added to the perfusate (15 mmol/l) to stop contractions. ECG was monitored throughout the experiment to ensure stable capture of the ventricles by the pacing electrode. […]
Blood-perfused pig heart imaging was done in a similar way. Briefly, the dye was excited with a 400-watt tungsten-halogen lamp (excitation filter, 650+/−20 nm) and the fluorescence was collected above 715 nm using a Computar objective lens (HG1208FCS_HSP, F0.8, focal length 12 mm,) and externally cooled CCD camera (Dalsa CA-D1-0128T, Ontario, Canada) at the frame rate of 400-800 fps and 12-bit resolution.
The acquired images were offline processed to improve their quality. The background autofluorescence (endogenous fluorescence recorded under the same conditions before dye injection) was subtracted from each frame to obtain the voltage-dependent optical signal. To allow temporal alignment and subsequent averaging of successive paced action potentials, the trigger for the pacing stimulus was recorded as a single pixel in the movie frames. […] Dye loading and washout dynamics were assessed from averaged sets of OP recordings (3-5 specimens). To facilitate comparison, fluorescence and OP signals were normalized to their peak values (defined as the difference between maximum and minimum values) in some figures.
For the dye loading dynamics, the time to reach peak values of background fluorescence (membrane voltage independent component of the dye molecules fluorescence), OP, and ΔF/F were determined by simple visual inspection of the dynamic plots. […]

[12] = Absorbance spectra in ethanol; assay type: physicochemical
Method: Absorbance spectra were measured in ethanol (panel A), and a model membrane made of multilamellar lipid vesicles (MLV) composed of egg phosphatidyl choline (panel B). The absorbance spectra reveal single maxima that represent a high level of the dye purity and absence of different configurational isomers. The absorption maxima for JPW6003 in ethanol occurred at 603 nm. For the dye JPW 6033 all absorption maxima are shifted 20-40 nm to shorter wavelengths, but absorbance is 2-3 times higher. Though the long wavelength absorbance peaks range from 561 nm to 603 nm in ethanol, and 526 nm to 539 nm in MLV, in practical applications both dyes can be efficiently excited over a much broader range (500-700 nm), allowing one to optimize excitation for the dye in different tissues, including blood perfused tissue.

| Compound | delta F/F (relative fluorescence) in a model membrane [1] | ΔF/F (relative fluorescence, maximal fluorescence efficacy) [2] | ΔF/F (relative fluorescence, maximal fluorescence efficacy) [3] | ΔF/F (relative fluorescence, maximal fluorescence efficacy) [4] | ΔF/F (relative fluorescence, maximal fluorescence efficacy) [5] | ΔF/F (relative fluorescence) [5] | 50% washout time of OP amplitude [6] | 50% washout time of OP amplitude [7] | 50% washout time of OP amplitude [8] | 50% washout time of OP amplitude [9] | OP amplitude higher than that of di-4-ANEPPS [10] | time of slow increase in total fluorescence and OP (dye loading) ([11]; dye injected during recirculated-blood-perfusion) | ΔF/F (relative fluorescence) ([11]; pig, Tyrode's-perfused loading) | ΔF/F (relative fluorescence) ([11]; pig, blood-perfused loading (dye injected into blood flow)) | steady-state level of deltaF/F during blood perfusion ([11]; pig, regardless of loading in Tyrode's or directly into blood flow) | absorption maxima (excitation wavelength) [12] |
| --- | --- | --- | --- | --- | --- | --- | --- | --- | --- | --- | --- | --- | --- | --- | --- | --- |
| CCCCN(CCCC)c1ccc2cc(/C=C/c3cc[n+](CCCS(=O)(=O)[O-])cc3)ccc2c1 [di-4-ANEPPS] | 9% |  |  |  |  |  |  |  |  |  |  |  |  |  |  |  |
| Di-4-ANBDQBS [JPW6033] |  | 10 ± 1.5% | 14 ± 1.5% | 12.5 ± 1.4% | 15 ± 1.0% | 14 ± 1.1% | 1.0 ± 0.1 h | 1.8 ± 0.2 h | 2.0 ± 0.2 h | 2.50 ± 0.28 h | 50-100% |  |  |  |  |  |
| CCCCN(CCCC)c1ccc2cc(/C=C/C=C/c3cc[n+](CCC[N+](C)(C)C)c4ccccc34)ccc2c1.[Br-].[Br-] [JPW6003, Di-4-ANBDQPQ] |  | 9.1 ± 1.4% | 11.1 ± 1.6% | 11.3 ± 1.0% | 18.7% and 18.7 ± 1.1% | approximately 20% | 1.4 ± 0.2 h | 2.50 ± 0.28 h | 2.80 ± 0.31 h | 3.33 ± 0.31 h |  | ~1 h | 12% | 5.5 ± 1.5% | ~5% | 603 nm |
